Experimental data taken from ChEMBL document CHEMBL4819150, “The structural simplification of lysergic acid as a natural lead for synthesizing novel anti-Alzheimer agents” (2021).
The source made the active and inactive calls. The rule behind the calls is not given here.

What was measured:
[1] = test system: PC-12; assay: Neuroprotective activity against rat PC12 cells under glucose and oxygen-deprived condition assessed as fold increase in cell viability at 1 uM relative to DPZ; format: functional
[2] = test system: SIM-A9; assay: Neuroprotective activity against LPS-induced mouse SIM-A9 cells assessed as increase in cell viability at 1 uM relative to control; format: functional, cell-based
[3] = test system: SIM-A9; assay: Antiinflammatory activity in mouse microglial SIM-A9 cells assessed as reduction in LPS-stimulated nitric oxide release at 1 uM relative to control; format: functional, cell-based
[4] = test system: PC-12; assay: Neuroprotective activity against rat PC12 cells under glucose and oxygen-deprived condition assessed as increase in cell viability at 1 uM relative to control; format: functional, cell-based
[5] = test system: PC-12; assay: […] activity in rat PC12 cells assessed as reduction in TCN-induced ER stress by measuring increase in cell viability at 1 uM relative to control; format: functional, cell-based
[6] = test system: PC-12; assay: Neuroprotective activity against rat PC12 cells under glucose and oxygen-deprived condition assessed as increase in cell viability at 0.1 uM relative to control; format: functional, cell-based

In the case of `COCc1c[nH]c2cccc(/C=C/C(=O)OC)c12`, the “fold change (FC)” value [1] is reported as 10, the Activity [2] is reported as “Active” and the Activity [3] is reported as “Active”. The Activity [4] was “Active” and the Activity [5] was “Active”.

With `CN(C)Cc1c[nH]c2cccc(Br)c12` the “fold change (FC)” value [1] was 10, the Activity [3] was “Active” and the Activity [4] was “Active”. For the same molecule, the Activity [5] was “Active”.

For `COc1cc2c(cc1OC)C(=O)C(CC1CCN(Cc3ccccc3)CC1)C2` (stereo unspecified), the Activity [2] was “Active”, the Activity [3] was “Active” and the Activity [4] was “Active”. The Activity [5] was “Active” and the Activity [6] was “Active”.

With `O=[N+]([O-])C(Cc1c[nH]c2cccc(Br)c12)Cc1c[nH]c2cccc(Br)c12` the “fold change (FC)” value [1] was 10, the Activity [2] was “inactive” and the Activity [4] was “Active”. For the same molecule, the Activity [5] was “inactive”.

`CN(C)Cc1c[nH]c2cccc(/C=C/C(N)=O)c12` was tested, and the “fold change (FC)” value [1] was 10, the Activity [2] was “Active” and the Activity [3] was “Active”. The Activity [4] was “Active” and the Activity [5] was “Active”.

In the case of `COC(=O)/C=C/c1cccc2[nH]cc(CN(C)C)c12`, the “fold change (FC)” value [1] is reported as 10, the Activity [2] is reported as “Active” and the Activity [3] is reported as “Active”. The Activity [4] was “Active” and the Activity [5] was “Active”.

In the case of `COC(=O)C[C@H]1c2cccc3[nH]cc(c23)C[C@@H]1[N+](=O)[O-]`, the “fold change (FC)” value [1] is reported as 10, the Activity [4] is reported as “Active” and the Activity [5] is reported as “Active”.
